Experimental data as given in PubChem BioAssay (NCI).
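Growth conditions: 96-well plates. Treatment: test compound, 48 hours, 5 concentrations. Analysis: linear interpolation between bracketing concentrations; unreached endpoints set to highest concentration. At the TGI there is no net growth.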

Key:
Test in all cases: DTP human tumour cell line panel, 48 h
K-562 leukemia = tested on: K-562 leukemia
SR leukemia = tested on: SR leukemia
MDA-MB-435 = tested on: MDA-MB-435
NCI-H460 lung = tested on: NCI-H460 lung
SK-MEL-2 melanoma = tested on: SK-MEL-2 melanoma
MCF7 breast = tested on: MCF7 breast
SF-295 CNS = tested on: SF-295 CNS
ACHN renal = tested on: ACHN renal
LOX IMVI melanoma = tested on: LOX IMVI melanoma
MALME-3M melanoma = tested on: MALME-3M melanoma
RXF 393 renal = tested on: RXF 393 renal
OVCAR-4 ovarian = tested on: OVCAR-4 ovarian
NCI/ADR-RES ovarian = tested on: NCI/ADR-RES ovarian
RPMI-8226 leukemia = tested on: RPMI-8226 leukemia
HOP-62 NSCLC = tested on: HOP-62 NSCLC
MDA-N = tested on: MDA-N
NCI-H226 lung = tested on: NCI-H226 lung
EKVX NSCLC = tested on: EKVX NSCLC
MDA-MB-231 breast = tested on: MDA-MB-231 breast
IGROV1 ovarian = tested on: IGROV1 ovarian
PC-3 prostate = tested on: PC-3 prostate
HT29 colon = tested on: HT29 colon
HS 578T breast = tested on: HS 578T breast
HL-60(TB) leukemia = tested on: HL-60(TB) leukemia
CCRF-CEM leukemia = tested on: CCRF-CEM leukemia
SK-MEL-28 melanoma = tested on: SK-MEL-28 melanoma
U251 CNS = tested on: U251 CNS
T-47D breast = tested on: T-47D breast
A549 NSCLC = tested on: A549 NSCLC
DU-145 prostate = tested on: DU-145 prostate
NCI-H23 lung = tested on: NCI-H23 lung
UACC-62 melanoma = tested on: UACC-62 melanoma
M14 melanoma = tested on: M14 melanoma
COLO 205 colon = tested on: COLO 205 colon
A498 renal = tested on: A498 renal
SF-268 CNS = tested on: SF-268 CNS
SNB-19 CNS = tested on: SNB-19 CNS
SW-620 colon = tested on: SW-620 colon
SF-539 CNS = tested on: SF-539 CNS
KM12 colon = tested on: KM12 colon
NCI-H522 lung = tested on: NCI-H522 lung
UO-31 renal = tested on: UO-31 renal
HCT-15 colon = tested on: HCT-15 colon
HOP-92 NSCLC = tested on: HOP-92 NSCLC
CAKI-1 renal = tested on: CAKI-1 renal
OVCAR-3 ovarian = tested on: OVCAR-3 ovarian
786-0 renal = tested on: 786-0 renal
SN12C renal = tested on: SN12C renal
MOLT-4 leukemia = tested on: MOLT-4 leukemia
UACC-257 melanoma = tested on: UACC-257 melanoma
OVCAR-8 ovarian = tested on: OVCAR-8 ovarian
HCT-116 colon = tested on: HCT-116 colon
BT-549 breast = tested on: BT-549 breast
SK-OV-3 ovarian = tested on: SK-OV-3 ovarian
TK-10 renal = tested on: TK-10 renal
OVCAR-5 ovarian = tested on: OVCAR-5 ovarian
SK-MEL-5 melanoma = tested on: SK-MEL-5 melanoma
HCC-2998 colon = tested on: HCC-2998 colon

## O=C(O)C1Cc2c([nH]c3ccccc23)C(CCCCO)N1 (stereo not given)
K-562 leukemia
  TGI: > 100 µM
SR leukemia
  TGI: > 100 µM
MDA-MB-435
  TGI: > 100 µM
NCI-H460 lung
  TGI: > 100 µM
SK-MEL-2 melanoma
  TGI: > 100 µM
MCF7 breast
  TGI: > 100 µM
SF-295 CNS
  TGI: > 100 µM
ACHN renal
  TGI: > 100 µM
LOX IMVI melanoma
  TGI: > 100 µM
MALME-3M melanoma
  TGI: > 100 µM
RXF 393 renal
  TGI: > 100 µM
OVCAR-4 ovarian
  TGI: > 100 µM
NCI/ADR-RES ovarian
  TGI: > 100 µM
RPMI-8226 leukemia
  TGI: > 100 µM
HOP-62 NSCLC
  TGI: > 100 µM
MDA-N
  TGI: > 100 µM
NCI-H226 lung
  TGI: > 100 µM
EKVX NSCLC
  TGI: > 100 µM
MDA-MB-231 breast
  TGI: > 100 µM
IGROV1 ovarian
  TGI: > 100 µM
PC-3 prostate
  TGI: > 100 µM
HT29 colon
  TGI: > 100 µM
HS 578T breast
  TGI: > 100 µM
HL-60(TB) leukemia
  TGI: > 100 µM
CCRF-CEM leukemia
  TGI: > 100 µM
SK-MEL-28 melanoma
  TGI: > 100 µM
U251 CNS
  TGI: > 100 µM
T-47D breast
  TGI: > 100 µM
A549 NSCLC
  TGI: > 100 µM
DU-145 prostate
  TGI: > 100 µM
NCI-H23 lung
  TGI: > 100 µM
UACC-62 melanoma
  TGI: > 100 µM
M14 melanoma
  TGI: > 100 µM
COLO 205 colon
  TGI: > 100 µM
A498 renal
  TGI: > 100 µM
SF-268 CNS
  TGI: > 100 µM
SNB-19 CNS
  TGI: > 100 µM
SW-620 colon
  TGI: > 100 µM
SF-539 CNS
  TGI: > 100 µM
KM12 colon
  TGI: > 100 µM
NCI-H522 lung
  TGI: > 100 µM
UO-31 renal
  TGI: > 100 µM
HCT-15 colon
  TGI: > 100 µM
HOP-92 NSCLC
  TGI: > 100 µM
CAKI-1 renal
  TGI: > 100 µM
OVCAR-3 ovarian
  TGI: > 100 µM
786-0 renal
  TGI: > 100 µM
SN12C renal
  TGI: > 100 µM
MOLT-4 leukemia
  TGI: > 100 µM
UACC-257 melanoma
  TGI: > 100 µM
OVCAR-8 ovarian
  TGI: > 100 µM
HCT-116 colon
  TGI: > 100 µM
BT-549 breast
  TGI: > 100 µM
SK-OV-3 ovarian
  TGI: > 100 µM
TK-10 renal
  TGI: > 100 µM
OVCAR-5 ovarian
  TGI: > 100 µM
SK-MEL-5 melanoma
  TGI: > 100 µM

## COc1ccc2c(c1)CCc1cc(C(N)=O)c3nnnn3c1-2
K-562 leukemia
  TGI: > 100 µM
SR leukemia
  TGI: > 100 µM
MDA-MB-435
  TGI: > 100 µM
NCI-H460 lung
  TGI: 50.9 µM
SK-MEL-2 melanoma
  TGI: > 75.5 µM
MCF7 breast
  TGI: > 100 µM
SF-295 CNS
  TGI: 98.5 µM
ACHN renal
  TGI: > 100 µM
LOX IMVI melanoma
  TGI: > 100 µM
MALME-3M melanoma
  TGI: > 100 µM
RXF 393 renal
  TGI: 63 µM
OVCAR-4 ovarian
  TGI: > 100 µM
NCI/ADR-RES ovarian
  TGI: > 100 µM
RPMI-8226 leukemia
  TGI: > 100 µM
HOP-62 NSCLC
  TGI: > 100 µM
MDA-N
  TGI: > 100 µM
NCI-H226 lung
  TGI: > 100 µM
MDA-MB-231 breast
  TGI: > 100 µM
IGROV1 ovarian
  TGI: > 100 µM
PC-3 prostate
  TGI: > 100 µM
HT29 colon
  TGI: > 100 µM
HS 578T breast
  TGI: > 100 µM
HL-60(TB) leukemia
  TGI: > 100 µM
CCRF-CEM leukemia
  TGI: > 91.2 µM
SK-MEL-28 melanoma
  TGI: > 100 µM
U251 CNS
  TGI: > 67.4 µM
T-47D breast
  TGI: > 100 µM
A549 NSCLC
  TGI: > 100 µM
DU-145 prostate
  TGI: > 100 µM
NCI-H23 lung
  TGI: > 100 µM
UACC-62 melanoma
  TGI: 23.9 µM
M14 melanoma
  TGI: > 100 µM
COLO 205 colon
  TGI: > 100 µM
A498 renal
  TGI: 62.2 µM
SF-268 CNS
  TGI: 29.3 µM
SNB-19 CNS
  TGI: > 100 µM
SW-620 colon
  TGI: > 100 µM
SF-539 CNS
  TGI: > 100 µM
KM12 colon
  TGI: > 100 µM
NCI-H522 lung
  TGI: > 100 µM
HCT-15 colon
  TGI: > 100 µM
HOP-92 NSCLC
  TGI: > 100 µM
CAKI-1 renal
  TGI: > 100 µM
OVCAR-3 ovarian
  TGI: > 100 µM
786-0 renal
  TGI: > 100 µM
SN12C renal
  TGI: > 100 µM
MOLT-4 leukemia
  TGI: > 76.9 µM
UACC-257 melanoma
  TGI: > 100 µM
OVCAR-8 ovarian
  TGI: > 100 µM
HCT-116 colon
  TGI: > 100 µM
HCC-2998 colon
  TGI: > 100 µM
BT-549 breast
  TGI: > 100 µM
SK-OV-3 ovarian
  TGI: > 100 µM
TK-10 renal
  TGI: > 100 µM
OVCAR-5 ovarian
  TGI: > 100 µM
SK-MEL-5 melanoma
  TGI: > 100 µM

## Cc1ccc(/C(O)=C/c2nc3ccccc3[nH]c2=O)cc1
K-562 leukemia
  TGI: > 100 µM
SR leukemia
  TGI: 72.9 µM
MDA-MB-435
  TGI: 31.8 µM
NCI-H460 lung
  TGI: 37.3 µM
SK-MEL-2 melanoma
  TGI: 17.6 µM
MCF7 breast
  TGI: > 100 µM
SF-295 CNS
  TGI: 14.6 µM
ACHN renal
  TGI: 14.5 µM
LOX IMVI melanoma
  TGI: 52.1 µM
MALME-3M melanoma
  TGI: 13.4 µM
RXF 393 renal
  TGI: 7.1 µM
OVCAR-4 ovarian
  TGI: 4.04 µM
NCI/ADR-RES ovarian
  TGI: 23 µM
RPMI-8226 leukemia
  TGI: 47.5 µM
HOP-62 NSCLC
  TGI: 5.16 µM
MDA-N
  TGI: > 100 µM
NCI-H226 lung
  TGI: 6.4 µM
EKVX NSCLC
  TGI: 21.1 µM
MDA-MB-231 breast
  TGI: 15.2 µM
IGROV1 ovarian
  TGI: 5.92 µM
PC-3 prostate
  TGI: > 100 µM
HT29 colon
  TGI: 67.2 µM
HS 578T breast
  TGI: 6.79 µM
HL-60(TB) leukemia
  TGI: > 100 µM
CCRF-CEM leukemia
  TGI: > 100 µM
SK-MEL-28 melanoma
  TGI: 23.2 µM
U251 CNS
  TGI: 22.6 µM
T-47D breast
  TGI: 16.3 µM
A549 NSCLC
  TGI: 19.6 µM
DU-145 prostate
  TGI: 21.5 µM
NCI-H23 lung
  TGI: 33.4 µM
UACC-62 melanoma
  TGI: 9.38 µM
M14 melanoma
  TGI: 73.4 µM
COLO 205 colon
  TGI: > 100 µM
A498 renal
  TGI: 58.2 µM
SF-268 CNS
  TGI: 24 µM
SNB-19 CNS
  TGI: 27.8 µM
SF-539 CNS
  TGI: 27.6 µM
KM12 colon
  TGI: > 100 µM
NCI-H522 lung
  TGI: 6.59 µM
UO-31 renal
  TGI: 21 µM
HCT-15 colon
  TGI: > 100 µM
HOP-92 NSCLC
  TGI: 27.1 µM
CAKI-1 renal
  TGI: 14.2 µM
OVCAR-3 ovarian
  TGI: 11.2 µM
786-0 renal
  TGI: 5.61 µM
SN12C renal
  TGI: 34 µM
MOLT-4 leukemia
  TGI: > 100 µM
UACC-257 melanoma
  TGI: 87.4 µM
OVCAR-8 ovarian
  TGI: 12.2 µM
HCT-116 colon
  TGI: 5.7 µM
HCC-2998 colon
  TGI: > 100 µM
BT-549 breast
  TGI: 95.3 µM
SK-OV-3 ovarian
  TGI: 5.64 µM
TK-10 renal
  TGI: 11.1 µM
OVCAR-5 ovarian
  TGI: > 100 µM
SK-MEL-5 melanoma
  TGI: > 100 µM
